Measurements reported in PubChem BioAssay (NCI).
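Values below derive from 48-hour exposures of cells grown in 96-well plates, with endpoints linearly interpolated between the two concentrations bracketing the appropriate inhibition level. TGI is the concentration that stops growth completely.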

Experiments:
Test in all cases: growth of human tumour cells (NCI), 48 h
[1] = test system: 786-0 renal
[2] = test system: A498 renal
[3] = test system: A549 NSCLC
[4] = test system: ACHN renal
[5] = test system: CAKI-1 renal
[6] = test system: CCRF-CEM leukemia
[7] = test system: COLO 205 colon
[8] = test system: DMS 114 small cell lung
[9] = test system: DMS 273 small cell lung
[10] = test system: EKVX NSCLC
[11] = test system: HCC-2998 colon
[12] = test system: HCT-116 colon
[13] = test system: HCT-15 colon
[14] = test system: HL-60(TB) leukemia
[15] = test system: HOP-62 NSCLC
[16] = test system: HOP-92 NSCLC
[17] = test system: HT29 colon
[18] = test system: IGROV1 ovarian
[19] = test system: K-562 leukemia
[20] = test system: KM12 colon
[21] = test system: KM20L2 colon
[22] = test system: LXFL 529 NSCLC
[23] = test system: M14 melanoma
[24] = test system: M19-MEL melanoma
[25] = test system: MALME-3M melanoma
[26] = test system: MOLT-4 leukemia
[27] = test system: NCI-H226 lung
[28] = test system: NCI-H23 lung
[29] = test system: NCI-H460 lung
[30] = test system: NCI-H522 lung
[31] = test system: OVCAR-3 ovarian
[32] = test system: OVCAR-4 ovarian
[33] = test system: OVCAR-5 ovarian
[34] = test system: OVCAR-8 ovarian
[35] = test system: RPMI-8226 leukemia
[36] = test system: RXF 393 renal
[37] = test system: RXF-631 renal
[38] = test system: SF-268 CNS
[39] = test system: SF-295 CNS
[40] = test system: SF-539 CNS
[41] = test system: SK-MEL-2 melanoma
[42] = test system: SK-MEL-28 melanoma
[43] = test system: SK-MEL-5 melanoma
[44] = test system: SK-OV-3 ovarian
[45] = test system: SN12C renal
[46] = test system: SNB-19 CNS
[47] = test system: SNB-75 CNS
[48] = test system: SNB-78 CNS
[49] = test system: SW-620 colon
[50] = test system: TK-10 renal
[51] = test system: U251 CNS
[52] = test system: UACC-257 melanoma
[53] = test system: UACC-62 melanoma
[54] = test system: XF 498 CNS

Measured: TGI

COC(=O)C1=C(C(=O)OC)C2(CCCCCC2=O)OC1=O (centres undefined)
> 100 µM: [1] | [2] | [3] | [4] | [5] | [6] | [7] | [8] | [9] | [10] | [11] | [12] | [13] | [14] | [15] | [16] | [17] | [18] | [19] | [20] | [21] | [22] | [23] | [24] | [25] | [26] | [27] | [28] | [29] | [30] | [31] | [32] | [33] | [34] | [35] | [36] | [37] | [38] | [39] | [40] | [41] | [42] | [43] | [44] | [45] | [46] | [47] | [48] | [49] | [50] | [51] | [52] | [53] | [54]
